This note sets out measurements from patent US20230357320A1, “HELICAL STAPLED PEPTIDES AND USES THEREOF” (FOG PHARMACEUTICALS, INC., priority 2020, published 2023).

One data set in a line: in vitro. Set-up: dose or concentration left out as unconfirmed. The following applies: PAMPA. (In general: In PAMPA a lipid-coated filter parts donor from acceptor wells.)
On the set-up of data set [1]: PAMPA Pe: dose or concentration left out as unconfirmed. The following applies: for % Retention: PAMPA; for PAMPA Pe: 5 h, pH 7.4.
Data set [2] in a line: CHI Log D measurement (chromatographic hydrophobicity index). The following applies: pH 7.4.
Protocol: Finally, to measure hydrophobicity, a CHI Log D measurement assay was employed. […] The retention time measurements were performed using reverse-phase HPLC and Q-Exactive mass spectrometer with Phenomenex Gemini C-18 column (3 uM, 50×3 mm). The reverse-phase chromatography was performed using a gradient of 10 mM ammonium acetate at pH=7.4 and acetonitrile solvents. Using the identical solvent setup, gradient, and flowrate, ProLock stapled peptides were injected onto the column to determine the tR of peptides. Using the calibration curve shown in FIG. 7, tR is converted into CHI. CHI was converted into CHI Log D using the following equation.
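Throughout, for % Retention: Phospholipid-membrane PAMPA, donor and acceptor in DPBS pH 7.4 with 5% DMSO, 37 °C for 5 h, compound in each well quantified by reverse-phase HPLC-MS.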
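Throughout, for PAMPA Pe: Phospholipid-membrane PAMPA, donor and acceptor in DPBS pH 7.4 with 5% DMSO, 37 °C for 5 h, compound in each well quantified by reverse-phase HPLC-MS.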
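Throughout, for Papp: Phospholipid-membrane PAMPA, donor and acceptor in DPBS pH 7.4 with 5% DMSO, 37 °C for 5 h, compound in each well quantified by reverse-phase HPLC-MS.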

For `CNC(=O)[C@H](Cc1ccc(O)cc1)NC(=O)[C@@H](NC(=O)[C@H](CC(C)C)NC(=O)[C@H](CC(C)C)NC(=O)[C@H](CC(N)=O)NC(=O)[C@]1(C)CCCC=CC[C@]2(CCCN2)C(=O)N[C@@H](CCCCN)C(=O)N[C@@H](CC(C)C)C(=O)N1)[C@@H](C)O` (single isomer, unassigned) [PLL4-5 variant 1, H-PL3-Lys-Leu-S5-Asn-Leu-Leu-Thr-Tyr-NHMe], in the data set “in vitro” (pH 7.4, PAMPA Pe), the Papp (commonly the rate of passage across a membrane or cell layer, normalised by area and donor concentration) at 5 h was at most 0.1 ×10⁻⁶ cm/s. Besides, in data set [1], the “% Retention” value was found to be 52 ± 8%. Moreover, the chromatographic logD – broadly, lipophilicity estimated from chromatographic retention – in data set [2] was 1.5.
On the same counts, the results for `CC(=O)N1CCC[C@]12CC=CCCC[C@@](C)(C(=O)N[C@@H](CC(N)=O)C(=O)N[C@@H](CC(C)C)C(=O)N[C@@H](CC(C)C)C(=O)N[C@H](C(=O)N[C@@H](Cc1ccc(O)cc1)C(N)=O)[C@@H](C)O)NC(=O)[C@H](CC(C)C)NC(=O)[C@H](CCCCN)NC2=O` (single isomer, unassigned) [PLL4-5 variant 3, Ac-PL3-Lys-Leu-S5-Asn-Leu-Leu-Thr-Tyr-NH2] are 0.4 ± 0.1 ×10⁻⁶ cm/s, 78 ± 8% and 1.6.
In turn, `CCCC[C@H](NC(=O)[C@H](CC(C)C)NC(=O)[C@]1(C)CCCC=CC[C@]2(CCCN2C(C)=O)C(=O)N[C@@H](C)C(=O)N[C@@H](CC(C)C)C(=O)N1)C(=O)N[C@@H](CC(C)C)C(=O)N[C@@H](C)C(=O)N[C@@H](Cc1ccc(O)cc1)C(=O)NC` (single isomer, unassigned) [PLL4-6, Ac-PL3-Ala-Leu-S5-Leu-Nle-Leu-Ala-Tyr-NHMe] gave a Papp at 5 h in “in vitro” (pH 7.4, PAMPA Pe) of at most 0.1 ×10⁻⁶ cm/s. For the same compound, in data set [1], the “% Retention” value is 48 ± 3%. The same compound yielded a chromatographic logD in data set [2] of 4.
As to `CCCC[C@@H]1NC(=O)[C@H](CC(C)C)NC(=O)[C@]2(CC=CCCC[C@@](C)(C(=O)N[C@@H](CC(C)C)C(=O)N[C@@H](CC(C)C)C(=O)N[C@@H](Cc3c[nH]cn3)C(=O)N[C@@H](Cc3ccc(O)cc3)C(=O)NC)NC1=O)CCCN2C(C)=O` (single isomer, unassigned) [PLL4-9, Ac-PL3-Leu-Nle-S5-Leu-Leu-His-Tyr-NHMe], in “in vitro” (pH 7.4, PAMPA Pe), the Papp at 5 h is at most 0.1 ×10⁻⁶ cm/s. The “% Retention” value in data set [1] was 43 ± 3%. The compound also returned a chromatographic logD in data set [2] of 3.3.
Consider `CNC(=O)[C@H](CC(=O)O)NC(=O)[C@H](CC(C)C)NC(=O)[C@H](CC(C)C)NC(=O)[C@H](Cc1ccc(O)cc1)NC(=O)[C@]1(C)CCCC=CC[C@]2(CCCN2)C(=O)N[C@@H](CC(C)C)C(=O)N[C@@H](CC(C)C)C(=O)N1` (single isomer, unassigned) [PLL4-10 variant 1, H-PL3-Leu-Leu-S5-Tyr-Leu-Leu-Asp-NHMe], for which, in “in vitro” (pH 7.4, PAMPA Pe), the Papp at 5 h is 0.3 ± 0.1 ×10⁻⁶ cm/s. Besides, the “% Retention” value in data set [1] is given as 66 ± 2%. In data set [2], this compound registered a chromatographic logD of 2.2.
For the compound `CC(=O)N1CCC[C@]12CC=CCCC[C@@](C)(C(=O)N[C@@H](Cc1ccc(O)cc1)C(=O)N[C@@H](CC(C)C)C(=O)N[C@@H](CC(C)C)C(=O)N[C@@H](CC(=O)O)C(N)=O)NC(=O)[C@H](CC(C)C)NC(=O)[C@H](CC(C)C)NC2=O` (single isomer, unassigned) [PLL4-10 variant 3, Ac-PL3-Leu-Leu-S5-Tyr-Leu-Leu-Asp-NH2], in the data set “in vitro” (pH 7.4, PAMPA Pe), the Papp at 5 h is 0.3 ± 0.1 ×10⁻⁶ cm/s. In data set [1], the “% Retention” value was 106 ± 2%. For the same compound, the chromatographic logD in data set [2] stood at 2.2.
For the compound `CC(=O)CC(c1ccccc1)c1c(O)c2ccccc2oc1=O` (centres unmarked) [Warfarin, reference compound], the Papp at 5 h was 8.6 ± 0.3 ×10⁻⁶ cm/s in the data set “in vitro” (pH 7.4, PAMPA Pe) and 7 to 11 ×10⁻⁶ cm/s in “in vitro” (pH 7.4, average effective permeability (Pe) of control on accepted PAMPA plates). Besides, in data set [1], the “PAMPA Pe” value is 8.6 ± 0.3 (x10^−6) cm/sec.
Take “Ac-PL3-Lec-Leu-S5-Tyr-Leu-Leu-Asp-NHMe [PLL4-10 variant 2]”: in data set [1], the “PAMPA Pe” value was ≤0.1 (×10^−6) cm/sec and the “% Retention” value is given as 92 ± 10%.
